Data from patent US20160022605A1, “METHODS FOR REDUCING MICROSATELLITE INSTABILITY INDUCED BY CHEMOTHERAPY AND METHODS FOR SCREENING ANTIOXIDANTS THAT SUPPRESS DRUG-INDUCED MICROSATELLITE INSTABILITY WHILE ENHANCING THE CYTOTOXICITY OF CHEMOTHERAPEUTIC AGENTS” (priority 2014, published 2016).
Entries after “also recorded” stand apart in the source; their conditions may differ.

Experiments:
HCT116-(CA)13 cells [1] = conditions: for suppression of methotrexate-induced MSI: 25 nM methotrexate with 2.5 mM NAC, 250 μM vitamin C or 1.5 μM curcumin; for suppression of methotrexate-induced MSI / suppression of CCNU-induced MSI: 5 mM GSH; for suppression of CCNU-induced MSI: 50 μM CCNU with 2.5 mM NAC, 250 μM vitamin C, 1.5 μM curcumin or 150 μM eugenol
Experimental: After treatment, HCT116-(CA)13 cells in 96-well glass plates (Corning-Costar®) were fixed with 4% paraformaldehyde and nuclei were stained with 1 μg/ml Hoechst 33258. Fluorescent images of the cells were acquired at 100× magnification by ImageXpress^Micro system (Molecular Devices) and analyzed with MetaXpress® V3.1 software as described previously [Li et al., 2014]. The frequency of frameshift mutations of the (CA)13 microsatellite is expressed as the percentage of the DsRed^+GFP^+Hoechst^+ subpopulation in the GFP^+Hoechst^+ population.

HCT116 cells [2] = experiment: MTT assay, oxaliplatin co-treatment in MMR-deficient cells; conditions: MMR-deficient HCT116, 1 μM oxaliplatin with 2-10 μM antioxidant, 3-day co-treatment
Experimental: (§1) Cell viability was determined by the MTT assay. Briefly, the optical density of colored formazan converted from MTT by viable cells was determined as previously described [Chang et al., 2002] at 595 nm with an ELISA reader (Thermo Labsystems). Cell viability is expressed as the optical density value of drug-treated cells relative to that of solvent-treated cells, after subtracting the background from the medium.

HCT116-(CA)13 cells [3] = experiment: REDOX library screen by high-content microscopy (MSI frequency and cell numbers); format: cell-based, human; conditions: 1 μM oxaliplatin, additional concentrations, 3-day co-treatment, 3-day recovery
Experimental: The REDOX library (Cat# BML-2835, ENZO, USA) is composed of 84 compounds that were supplied at 10 mM in DMSO. HCT116-(CA)13 cells were seeded at 1×10^4 cells per well in 96-well glass plates containing 100 μl growth medium. One day after seeding, the cells were co-treated with 1 μM oxaliplatin and an antioxidant at specified concentrations in triplicate for three days, followed by a 3-day recovery in fresh growth medium without the drug and antioxidants.

HCT116+chr3 cells = experiment: MTT assay in MMR-proficient cells; conditions: MMR-proficient HCT116+chr3, 1 μM oxaliplatin with 2-10 μM antioxidant, 3-day co-treatment
Experimental: as §1

HCT116 cells [4] = experiment: Fluoresceinated PCR-based assay of endogenous microsatellites (Bethesda panel); format: cell-based, human; conditions: 3-day recovery
Experimental: Genomic DNA was isolated from HCT116 derivatives in 12-well plates with EasyPure Genomic DNA mini kit. The isolated DNA were amplified with fluoresceinated primers specific for the Bethesda panel of microsatellite [Boland et al., 1998] and selected coding microsatellites as described previously [Li et al., 2014]. Fluoresceinated PCR products were analyzed by the ABI 310 genetic analyzer, and electropherograms were generated with GeneScan Collection software (ABI).

HCT116 cells [5] = experiment: Intracellular ROS assay (DCDHF-DA, flow cytometry); format: cell-based, human; conditions: 3-day treatment, 3-day recovery; 10 μM 5-FU, 25 nM methotrexate, 50 μM CCNU, 1 μM oxaliplatin
Experimental: Intracellular ROS levels were measured using an oxidation-sensitive 2′,7′-dichlorodihydrofluorescein diacetate (DCDHF-DA) probe, which can be oxidized to the fluorescent 2′,7′-dichloro-fluorescein (DCF) product. After treatment, HCT116 derivatives in 12-well plates were harvested, washed and resuspended in PBS containing 10 μM DCDHF-DA, followed by 30-min incubation at 37° C. in the dark before being subjected to flow cytometry (Quanta SC-MPL). For a ROS curve of H2O2, 2×10^5 HCT116 derivatives were detached, washed, and incubated with 10 μM DCDHF-DA for 30 min at 37° C., followed by flow cytometric analysis after 30-min exposure to different concentrations of H2O2. After excluding cell debris on the basis of electronic volume and side scatter, the fluorescence intensity of DCF was measured in fluorescence channel 1 of the flow cytometer (λex: 488 nm; λem: 525 nm). The ROS level is expressed as the mean fluorescence intensity (MFI) of DCF from 10,000 cells per sample.

HCT116-(CA)13 cells [6] = experiment: Frameshift mutation (MSI) analysis by flow cytometry with dual-fluorescent reporter; conditions: for mutation frequency: 3-day treatment, 3-day recovery, untreated 0.46±0.04%; for MSI induction (in words): HCT116 derivatives, single drug
Experimental: (§2) Specified cells were seeded at 1×10^4 or 1×10^5 cells per well in 96-well or 12-well plates respectively. One day after seeding, the cells were treated in triplicates for 3 days with a tested drug in the presence or absence of an antioxidant at indicated concentrations. Subsequently, the drug and/or antioxidant were removed and cells were washed and recovered in fresh growth medium for 3 days before being subjected to analyses. […] On the other hand, PBS was used to make 0.5 M vitamin C stock, saline for making 0.5 M NAC and 0.1 M GSH stocks, and DMSO for making 10 mM curcumin and 10 mM eugenol. Prior to the experiments, PBS was used for diluting the drugs and antioxidants and the final solvent concentration was kept the same for all tested compounds, including untreated controls.
At the end of treatment, adherent cells in 12-well plates were trypsinized and resuspended in PBS containing 1 mM EDTA, and filtered through a 40-μm strainer, and then subjected to flow cytometry (Quanta™ SC-MPL, Beckman Coulter). […] The frequency of frameshift mutations is expressed as the percentage of DsRed^+GFP^+ subpopulation in the GFP^+ cell population.

HCT116+chr3-(CA)13 cells = experiment: MSI analysis by high-content microscopy in MMR-proficient cells; format: cell-based, human; conditions: 3-day treatment (50 μM CCNU, 5 μM etoposide, 25 nM vinblastine), 3-day recovery; base line 0.35%
Experimental: as §2

HCT116-(CA)13 cells [7] = experiment: Cell viability (MTT assay) with drug and antioxidant co-treatment; conditions: for effect on methotrexate-mediated cytotoxicity (in words): 25 nM methotrexate with NAC, GSH or vitamin C
Experimental: as §1

[8] = 3-day treatment, 10 μM 5-FU, 5 μM etoposide, 25 nM vinblastine, 50 μM CCNU, 25 nM methotrexate, 1 μM oxaliplatin
[9] = 1-day treatment, 100 μM CCNU or 100 nM methotrexate
[10] = 5 μM etoposide with 250 μM vitamin C

## N[C@@H](CCC(=O)N[C@@H](CS)C(=O)NCC(=O)O)C(=O)O [GSH, glutathione]
HCT116-(CA)13 cells [1]
  suppression of methotrexate-induced MSI: 13%

## Cc1cc2c(C(C)C)c(O)c(O)c(C=O)c2c(O)c1-c1c(C)cc2c(C(C)C)c(O)c(O)c(C=O)c2c1O [gossypol, 7-(8-formyl-1,6,7-trihydroxy-3-methyl-5-propan-2-ylnaphthalen-2-yl)-2,3,8-trihydroxy-6-methyl-4-propan-2-ylnaphthalene-1-carbaldehyde]
HCT116 cells [2]
  effect on oxaliplatin-mediated cytotoxicity: enhanced oxaliplatin-mediated cytotoxicity in a concentration-dependent manner
HCT116-(CA)13 cells [3]
  outcome of secondary screen: oxaliplatin-induced MSI and oxaliplatin-mediated cytotoxicity: most promising antioxidants; also recorded: suppress oxaliplatin-induced MSI while enhancing oxaliplatin-mediated cytotoxicity
HCT116+chr3 cells
  effect on oxaliplatin-mediated cytotoxicity: enhanced oxaliplatin-mediated cytotoxicity in a concentration-dependent manner

## O=c1[nH]cc(F)c(=O)[nH]1 [5-FU, 5-fluoro-1H-pyrimidine-2,4-dione]
HCT116 cells [4]; [8]
  instability of Bethesda panel microsatellite markers: induced the instability of the BAT25 microsatellite
HCT116 cells [5]
  intracellular ROS levels: increased intracellular ROS levels
HCT116-(CA)13 cells [6]; 2.5 μM
  mutation frequency: 5.91±0.49%
HCT116-(CA)13 cells [6]; 5 μM
  mutation frequency: 6.37±0.96%
HCT116-(CA)13 cells [6]; 10 μM
  mutation frequency: 8.05±2.01%
HCT116-(CA)13 cells [6]; 5-FU 2.5-10 μM, HCT116-(CA)13 vs HCT116-(N)16
  susceptibility of (CA)13 microsatellite to drug-induced mutations compared to (N)16 random sequence: 1.2-2.8 fold
HCT116-(CA)13 cells [6]
  MSI induction (in words): induced MSI

## CCCCCCCCOC(=O)/C=C/c1ccc(O)c(O)c1 [n-octyl caffeate, Octyl 3-(3,4-dihydroxyphenyl)prop-2-enoate]
HCT116-(CA)13 cells [3]
  outcome of secondary screen: oxaliplatin-induced MSI and oxaliplatin-mediated cytotoxicity: most promising antioxidants

## COc1cc(/C=C/C(=O)CC(=O)/C=C/c2ccc(O)c(OC)c2)ccc1O [curcumin, (1E,6E)-1,7-bis(4-hydroxy-3-methoxyphenyl)hepta-1,6-diene-3,5-dione]
HCT116 cells [2]
  effect on oxaliplatin-mediated cytotoxicity: did not show a significant effect
HCT116-(CA)13 cells [3]
  outcome of secondary screen: oxaliplatin-induced MSI and oxaliplatin-mediated cytotoxicity: most promising antioxidants
HCT116+chr3 cells
  effect on oxaliplatin-mediated cytotoxicity: did not show a significant effect
HCT116-(CA)13 cells [1]
  suppression of methotrexate-induced MSI: did not affect methotrexate-induced MSI
  suppression of CCNU-induced MSI: approximately 55%

## CC[C@]1(O)C[C@@H]2CN(CCc3c([nH]c4ccccc34)[C@@](C(=O)OC)(c3cc4c(cc3OC)N(C)[C@H]3[C@@](O)(C(=O)OC)[C@H](OC(C)=O)[C@]5(CC)C=CCN6CC[C@]43[C@@H]65)C2)C1 [vinblastine]
HCT116 cells [4]; [8]
  instability of Bethesda panel microsatellite markers: destabilized the BAT26 microsatellite
HCT116+chr3-(CA)13 cells
  MSI frequency: 2.10%
HCT116-(CA)13 cells [6]
  MSI induction (in words): induced MSI

## CN(Cc1cnc2nc(N)nc(N)c2n1)c1ccc(C(=O)N[C@@H](CCC(=O)O)C(=O)O)cc1 [methotrexate, (2S)-2-[[4-[(2,4-diaminopteridin-6-yl)methyl-methylamino]benzoyl]amino] pentanedioic acid]
HCT116 cells [4]; [9]
  instability of Bethesda panel microsatellite markers: caused the instability of BAT25 and/or BAT26 microsatellites
HCT116 cells [4]; [8]
  instability of Bethesda panel microsatellite markers: failed to detect alterations
HCT116 cells [5]
  intracellular ROS levels: but not 25 nM methotrexate increased intracellular ROS levels
HCT116-(CA)13 cells [6]
  MSI induction (in words): induced MSI

## N#CC(=Cc1ccc(O)c(O)c1)C(=O)OC/C=C/c1ccccc1 (stereo in doubt) [CDC, [(E)-3-phenylprop-2-enyl] (Z)-2-cyano-3-(3,4-dihydroxyphenyl)prop-2-enoate]
HCT116-(CA)13 cells [3]
  outcome of secondary screen: oxaliplatin-induced MSI and oxaliplatin-mediated cytotoxicity: most promising antioxidants

## O=C1O[C@H]([C@@H](O)CO)C(O)=C1O [vitamin C]
HCT116-(CA)13 cells [7]
  effect on methotrexate-mediated cytotoxicity (in words): without affecting drug cytotoxicity
HCT116-(CA)13 cells [7]; [10]
  enhancement of etoposide-mediated cytotoxicity: ~10%
HCT116-(CA)13 cells [7]; 50 μM CCNU with 250 μM vitamin C
  effect on CCNU-mediated cytotoxicity (in words): without significantly affecting drug cytotoxicity
HCT116-(CA)13 cells [1]
  suppression of methotrexate-induced MSI: 12%
  suppression of CCNU-induced MSI: ~24%
HCT116-(CA)13 cells [1]; [10]
  suppression of etoposide-induced MSI: ~40%

## N[C@@H]1CCCC[C@H]1N.O=C(O)C(=O)O.[Pt] [oxaliplatin, (1R,2R)-cyclohexane-1,2-diamine;oxalic acid;platinum]
HCT116 cells [4]; [8]
  instability of Bethesda panel microsatellite markers: alterations of four out of five microsatellite markers
HCT116 cells [5]
  intracellular ROS levels: intermediate ROS-generating abilities
HCT116-(CA)13 cells [6]
  MSI induction (in words): strong MSI-inducing; also recorded: induced MSI

## CC(=O)N[C@@H](CS)C(=O)O [NAC, N-acetylcysteine]
HCT116-(CA)13 cells [7]
  effect on methotrexate-mediated cytotoxicity (in words): without affecting drug cytotoxicity
HCT116-(CA)13 cells [7]; 1 μM oxaliplatin with 2.5 mM NAC, 5 mM GSH or 150 μM eugenol
  effect on oxaliplatin-mediated cytotoxicity (in words): totally abolished
HCT116-(CA)13 cells [7]; 50 μM CCNU with 2.5 mM NAC or 5 mM GSH
  decrease of CCNU-mediated cytotoxicity: approximately 25%
HCT116-(CA)13 cells [1]
  suppression of methotrexate-induced MSI: 34%

## Cc1cc(C2CCCCC2)n(O)c(=O)c1 [ciclopirox ethanolamine, 2-aminoethanol;6-cyclohexyl-1-hydroxy-4-methylpyridin-2-one]
HCT116-(CA)13 cells [3]
  outcome of secondary screen: oxaliplatin-induced MSI and oxaliplatin-mediated cytotoxicity: most promising antioxidants

## O=c1cc(-c2ccccc2)oc2cc(O)c(O)c(O)c12 [baicalein, 5,6,7-trihydroxy-2-phenylchromen-4-one]
HCT116-(CA)13 cells [3]
  outcome of secondary screen: oxaliplatin-induced MSI and oxaliplatin-mediated cytotoxicity: most promising antioxidants

## COc1cc([C@@H]2c3cc4c(cc3[C@@H](O[C@@H]3O[C@@H]5CO[C@@H](C)O[C@H]5[C@H](O)[C@H]3O)[C@H]3COC(=O)[C@H]23)OCO4)cc(OC)c1O [etoposide, (5S,5aR,8aR,9R)-5-[[(2R,4aR,6R,7R,8R,8aS)-7,8-dihydroxy-2-methyl-4,4a,6,7,8,8a-hexahydropyrano[3,2-d][1,3]dioxin-6-yl]oxy]-9-(4-hydroxy-3,5-dimethoxyphenyl)-5a,6,8a,9-tetrahydro-5H-[2]benzofuro[6,5-f][1,3]benzodioxol-8-one]
HCT116 cells [4]; [8]
  instability of Bethesda panel microsatellite markers: destabilized the BAT26 microsatellite
HCT116+chr3-(CA)13 cells
  MSI frequency: 3.74%

## O=NN(CCCl)C(=O)NC1CCCCC1 [CCNU, 1-(2-chloroethyl)-3-cyclohexyl-1-nitrosourea]
HCT116 cells [4]; 100 μM CCNU, 1-day treatment
  alteration of D5S346: 1-bp insertion in a non-repetitive region of D5S346
HCT116 cells [4]; [9]
  instability of Bethesda panel microsatellite markers: caused the instability of BAT25 and/or BAT26 microsatellites
HCT116 cells [4]; [8]
  instability of Bethesda panel microsatellite markers: failed to detect alterations
HCT116 cells [5]
  intracellular ROS levels: generated the highest ROS level
HCT116+chr3-(CA)13 cells
  MSI frequency: 1.26%
HCT116-(CA)13 cells [6]
  MSI induction (in words): induced MSI

## C=CCc1ccc(O)c(OC)c1 [eugenol]
HCT116-(CA)13 cells [1]; 25 nM vinblastine with 150 μM eugenol
  suppression of vinblastine-induced MSI: 40%
HCT116-(CA)13 cells [1]
  suppression of CCNU-induced MSI: approximately 55%
